Twelve compounds from article PMC6661831, “Molecular docking, synthesis, kinetics study, structure–activity relationship and ADMET analysis of morin analogous as Helicobacter pylori urease inhibitors” (BMC Chemistry, 2019) can be followed below.

Converted amounts (≈) assume the structure as drawn. Read-outs that look alike come from different tables or passages of the source.

Assay [1] addresses T1, Jack bean urease (Canavalia ensiformis, UniProt P07374).
T1 construct: purchased Sigma Aldrich
Briefly: biochemical. The source says: (§1) The novel synthesized Morin derivatives were examined for in- vitro urease inhibitory action by determining the ammonia concentration released during the reaction by indophenol technique as described by Weatherburn as well as for antioxidant nature by determining the ability of compounds to donate hydrogen and electrons using DPPH method.
Urease enzyme inhibition investigation studies for all synthesized compounds were done by the method developed by Weatherburn named Indophenol against Jack Bean Urease. Briefly, incubation of solution of Jack bean protein 25 μL was done at temperature of 30 °C for a period of 15 min with 55 μL of buffers solution having 100 mM urea and 5 μL of test solution in 96-well plates. 45 μL phenol solution composing phenol 1% w/v and solution of sodium nitroprusside 0.005% w/v and alkali reagent 70 μL composed of sodium hydroxide 0.5% w/v and active sodium hypochloride solution 0.1% were mixed to every well. The measurement of increase in absorption at 625 nm was done after 50 min by help of a microplate reader (Molecular Device, USA). Readings were recorded in triplicate set in a final volume of 200 μL using thiourea as standard. Each assay was performed at pH 8.2 (0.01 M K2HPO4.3H2O, 0.01 M […] and 1 mM EDTA). Calculation of Inhibition in percentage of synthesized derivatives was done by the formula given as: I\% =AControl-ASample/AControl×100 where, Acontrol is control absorbance; Asample is test absorbance

A short description of assay [2]: DPPH radical scavenging (antioxidant) assay. The note with it: DPPH 300 µM, 30 min, mean SEM.
Source text: as §1
DPPH method was adopted for measuring the antioxidant nature of the synthesized derivatives. According to this method synthesized compounds were allowed to react for 0.5 h. at 37 °C with stable free radical, 1, 1-diphenyl-2-picrylhydrazyl radical (DPPH). The DPPH was taken in a concentration of 300 µM. Decrease in value of absorption at […] was measured after the period of incubation using a microplate reader using ascorbic acid as a standard. Molecule which can donate a proton to DPPH and cause its reduction act as an antioxidant. Following reduction deep violet coloured DPPH solution changes to yellow depending upon the nature of antioxidant compound, which brings a measurable decrease in value of absorption at 517 nm. The proton or electron donating capacity of the derivative was estimated from the fading of deep purple colored methanolic solution of 1, 1-diphenylpicrylhydrazyl (DPPH). Incubation of mixture was done at room temperature for 30 min and measurements were done at 517 against blank. Calculation of percentage inhibition was done by following formula: I\% =AControl-ASample/AControl×100 where, Acontrol is control absorbance; Asample is test absorbance

Assay [3] concerns H. pylori bacterium (ATCC 43504, DSM 4867). Briefly: MIC against Helicobacter pylori, micro broth dilution technique. It is filed as cell-based. The following applies: NCCLS method. How it is done: (§2) Compounds M2b and M2i which were found potent in urease inhibition and antioxidant activity as well as in terms of docking score were tested further against antibacterial efficiency against Helicobacter pylori ATCC 43504, DSM 4867 using AHA as a standard and DMSO as control. […] It could be concluded that compound M2i indicated excellent antibacterial action against H. Pylori, antioxidant and urease inhibitory activity.
(§3) Novel synthesized derivatives were investigated against H. pylori bacterium (ATCC 43504 DSM 4867, AHA as standard) for their antibacterial activity by using Well diffusion technique. The stock solution of compounds in DMSO (1000 μg/mL) were prepared. Cell suspension was prepared from culture grown on BHI broth. The cell suspensions of all the cultures were adjusted to 1–2 × 10^5cells/ml. Helicobacter pylori (100 µl) was inoculated by spread plate technique on agar plates (90 mm). Agar wells (5 mm) were made on H. pylori inoculated media and impregnated with 2500 µg of each sample and standard which were incubated @ 35 °C for 24–48 h with 5% CO2 and observed for zone of inhibition around the well. MIC was determined against Helicobacter pylori by micro broth dilution technique as per NCCLS method.

Assay [4] shares this test system. Briefly: Anti-H. pylori activity, well diffusion technique. It is filed as cell-based, Helicobacter pylori. The note with it: 2500 µg per well, 24–48 h, 35 °C. The method, then: as §2, §3
Setting [5] is: read-out: IC50 urease inhibition, Jack bean urease, indophenol method, pH 8.2, mean SEM.

T1 sequence (P07374 whole entry, looked up): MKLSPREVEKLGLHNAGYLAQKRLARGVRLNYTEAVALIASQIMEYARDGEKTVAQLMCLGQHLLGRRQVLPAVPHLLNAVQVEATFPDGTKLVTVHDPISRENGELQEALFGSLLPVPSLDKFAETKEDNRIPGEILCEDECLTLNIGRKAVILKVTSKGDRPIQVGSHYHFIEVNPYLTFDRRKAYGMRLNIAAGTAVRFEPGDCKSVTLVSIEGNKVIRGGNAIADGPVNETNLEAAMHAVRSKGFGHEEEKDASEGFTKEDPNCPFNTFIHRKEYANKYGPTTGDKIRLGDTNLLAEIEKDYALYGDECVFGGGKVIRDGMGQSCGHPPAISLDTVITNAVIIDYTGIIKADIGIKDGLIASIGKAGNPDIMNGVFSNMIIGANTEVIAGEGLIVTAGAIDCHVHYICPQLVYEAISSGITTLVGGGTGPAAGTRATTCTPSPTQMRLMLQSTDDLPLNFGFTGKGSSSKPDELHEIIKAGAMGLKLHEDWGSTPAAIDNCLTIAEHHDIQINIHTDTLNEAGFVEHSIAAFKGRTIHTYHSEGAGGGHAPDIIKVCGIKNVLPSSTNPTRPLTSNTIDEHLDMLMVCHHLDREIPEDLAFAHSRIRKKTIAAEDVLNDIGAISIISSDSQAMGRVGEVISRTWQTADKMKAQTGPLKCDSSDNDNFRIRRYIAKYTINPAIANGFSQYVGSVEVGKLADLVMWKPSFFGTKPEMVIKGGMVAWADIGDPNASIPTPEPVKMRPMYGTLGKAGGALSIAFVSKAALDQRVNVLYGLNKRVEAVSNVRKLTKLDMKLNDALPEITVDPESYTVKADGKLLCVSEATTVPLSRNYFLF

In the case of `O=c1c(O)c(-c2ccc(O)cc2O)oc2cc(O)cc(O)c12` [Morin, 3,5,7, 2′, 4′-pentahydroxyflavone], the 50% inhibitory concentration (IC50) in assay [1] stood at 21.77 ± 0.016 µM; in assay [2], 12.83 ± 0.028 µM.

With `Oc1ccc(-c2oc3cc(O)cc(O)c3c(=NC(=S)Nc3ccccc3)c2O)c(O)c1` [Compound M2a, N-((4E)-2-(2,4-dihydroxyphenyl)-3,5,7-trihydroxy-4H-chromen-4-ylidene)-N-phenylthiourea], the IC50 in assay [1] was determined as 12.71 ± 0.027 µM; in assay [2] it was 7.795 ± 0.003 µM. In the same order, the values of `NC(=S)N/N=c1\c(O)c(-c2ccc(O)cc2O)oc2cc(O)cc(O)c12` [Compound M3, (1Z)-1-(3,5,7-trihydroxy-2-(2,4-dihydroxyphenyl)-4H-chromen-4-ylidene)thiosemicarbazide] are 17.9 ± 0.007 µM and 11.9 ± 0.031 µM. Taken in the same sequence, the figures for `Oc1ccc(-c2oc3cc(O)cc(O)c3/c(=N/C(=S)NNc3ccccc3)c2O)c(O)c1` [Compound M4, (4Z)-4-(3,5,7-trihydroxy-2-(2,4-dihydroxyphenyl)-4H-chromen-4-ylidene)-1-phenylthiosemicarbazide] were 18.96 ± 0.011 µM and 8.099 ± 0.018 µM. Consider `O=[N+]([O-])c1cccc(NC(=S)N=c2c(O)c(-c3ccc(O)cc3O)oc3cc(O)cc(O)c23)c1` [Compound M2d, N-((4E)-2-(2,4-dihydroxyphenyl)-3,5,7-trihydroxy-4H-chromen-4-ylidene)-N-(3-nitrophenyl)thiourea], for which the IC50 in assay [1] (setting [5]) was 20.41 ± 0.031 µM; in assay [2], 11.56 ± 0.013 µM. Consider `NC(N)=S` [Thiourea, reference compound], for which the IC50 in assay [1] (Jack bean urease, indophenol method, pH 8.2, mean SEM, read-out: IC50 urease inhibition) was 22.8 ± 0.011 µM.

For `Oc1ccc(-c2oc3cc(O)cc(O)c3c(=NC(=S)Nc3ccccc3Cl)c2O)c(O)c1` [Compound M2b, N-(2-chlorophenyl)-N-((4E)-2-(2,4-dihydroxyphenyl)-3,5,7-trihydroxy-4H-chromen-4-ylidene)thiourea], in assay [2], the IC50 is 7.37 ± 0.024 µM. Consider `O=[N+]([O-])c1ccccc1NC(=S)N=c1c(O)c(-c2ccc(O)cc2O)oc2cc(O)cc(O)c12` [Compound M2c, N-((4E)-2-(2,4-dihydroxyphenyl)-3,5,7-trihydroxy-4H-chromen-4-ylidene)-N-(2-nitrophenyl)thiourea], for which the values for the IC50 in assay [1] (setting [5]) and in assay [2] were 19.5 ± 0.005 µM and 10.18 ± 0.006 µM, respectively. In the same order, the values of `O=[N+]([O-])c1ccc(NC(=S)N=c2c(O)c(-c3ccc(O)cc3O)oc3cc(O)cc(O)c23)cc1` [Compound M2e, N-((4E)-2-(2,4-dihydroxyphenyl)-3,5,7-trihydroxy-4H-chromen-4-ylidene)-N-(4-nitrophenyl)thiourea] are 20.2 ± 0.01 µM and 8.744 ± 0.008 µM. Compound `O=C1O[C@H]([C@@H](O)CO)C(O)=C1O` [Ascorbic acid, reference compound] yielded an IC50 in assay [2] of 8.59 ± 0.004 µM. Turning to `CC(=O)NO` [AHA, acetohydroxamic acid], in assay [3], the MIC amounted to 1000 µg/mL (≈ 13.3 mM). The compound also yielded a zone of inhibition in assay [4] of 9.00 ± 0.50 mm. On to `Oc1ccc(-c2oc3cc(O)cc(O)c3/c(=N/Nc3ccccc3)c2O)c(O)c1` [Compound M5, (4Z)-2-(2,4-dihydroxyphenyl)-4-(2-phenylhydrazinylidene)-4H-chromene-3,5,7-triol], for which the IC50 in assay [1] was 17.68 ± 0.08 µM; in assay [2] it was 8.78 ± 0.008 µM.
